In patent publication US20190247396A1, “DENTAL TREATMENT” (KING'S COLLEGE LONDON, priority 2016, published 2019):
Entries after “also recorded” stand apart in the source; their conditions may differ.

Assays:
[1] = test system: Axin2 (Wnt activity) in 171A4 mouse dental pulp cells; test: In vitro drug release from Kolspon sponge, Axin2 qPCR; assay type: cell-based; conditions: for Wnt activity (Axin2 qPCR): drug in collagen sponge incubated with cells, 50 nM BIO, 50 nM Tideglusib, vs media or sponge without drug
Description: In vitro drug release from Kolspon sponge was tested. 171A4 cells were plated in 24-well plates and incubated (37° C., 5% CO2/95% air, 100% humidity) for 24 h using standard culture medium. Falcon™ cell culture inserts for use with 24-well plates ([…]) were placed in the wells carrying 96 mm^2 Kolspon cubes either dry or soaked in 30 μl of the drug optimal concentration for 15 and 30 minutes, 1, 6, and 12 hours. The cells were collected with TRIzol and stored at −20° C.
RNA was extracted from the cells using TRIzol (Thermo Fisher Scientific) as recommended by the manufacturer. RNA was quantified using Nanodrop and reverse transcribed into cDNA. Beta-actin was used as housekeeping gene (Forward-[…] (SEQ ID NO 1), Reverse-[…]) (SEQ ID NO 2) and Axin2 for Wnt activity (Forward-[…] (SEQ ID NO 3), Reverse- TGCCCACACTAGGCTGACA (SEQ ID NO 4).

[2] = test system: mouse maxillary first molars; test: Reparative dentine formation after pulp exposure, Masson's Trichrome histology
Description: (§3) To test the induction of Axin2 in vivo, an injury model was developed. Mice were anaesthetized with a solution of Hypnorm (Fentanyl/fluanisone—VetaPharma Ltd.), water and Hypnovel (Midazolam—Roche) in the ratio 1:2:1 at 10 ml/kg by an intraperitoneal injection. Experimental tooth damage was created by drilling and making 0.13 mm holes in mouse maxillary first molars to expose the pulp. A rounded carbide bur FG ¼ coupled to a high speed hand piece was used to access the dentine. Once the bur cut exposed the dentine, a 30G needle was used to penetrate the pulp.
(§4) In order to protect the pulp from external contamination and stimulate dentine repair, the injury was capped either with ProRoot Mineral Trioxide Aggregate (MTA) (Maillfer Dentsply), or Kolspon (Fish Collage Type 1—Eucare Ltd) alone, or in association with 50 nM BIO (SIGMA), 5 μM CHIR99021 (SIGMA), or 50 nM Tideglusib (SIGMA) dissolved and diluted in DMSO, in contact with the pulp. Pieces of Kolspon were cut to size and soaked in solutions of the three inhibitors before being physically placed into the holes, in contact with the pulp.
(§5) The model described in Example 2 was then used to examine the effect on the formation of reparative dentine. Molars were drilled and sponges inserted and left as described in Example 2, this time for 4-6 weeks before the mice were sacrificed.
(§6) After 4 weeks decalcification in 19% EDTA the teeth were embedded in wax blocks and sectioned using 0.8 μm thickness. Sections were stained using Masson's Trichrome to reveal new dentine formation.

[3] = test system: human deciduous tooth dental pulp cells; conditions: cited from earlier work
[4] = test system: mouse maxillary first molars; conditions: in vivo
Description: as §3, §4, §5, §6

[5] = test system: mouse maxillary first molars; test: Reparative dentine formation after pulp exposure, micro-CT mineral analysis; assay type: in vivo
Description: T filled with mineral=0.0017 mg.

[6] = test system: Axin2 (Wnt activity) in dental pulp cells; test: Induction of Axin2 in vivo, pulp exposure injury model, qPCR of pulp cells; parameters: species or system mouse; conditions: one day after injury and capping; vs control, MTA or collagen sponge
Description: A glass ionomer cement was used to cover the sponge and protect the tooth (FIG. 2G). Specifically, a layer of 3M Ketac-Cem Radiopaque was used as a capping material to seal the injured site. The injury was performed on the two upper first molars. Post-op the mice were given Vetergesic (Buprenorphine—Ceva) at the rate of 0.3 mg/kg intraperitonially as analgesic. The animals were sacrificed after 1 day.
Treated teeth were removed after 24 h along with controls consisting of untreated teeth, MTA only and collagen sponge with no inhibitor.
Molars were extracted using a 21G needle as an elevator to lift them from the alveolar bone and kept in ice cold PBS. Using a 23 scalpel blade the molars were separated at the crown-root junction, so that the pulp chamber could be visualized. Using a 0.6 mm straight tip tweezer the pulp was gently scraped from the pulp chamber and the root canal. The pulp was then placed into cold Sigma RNAlater and stored at −80° C.
The extracted cells were tested for expression of Axin2 by qPCR as described in Example 1 (FIG. 1E). Expression of Axin2 was 3× higher in inhibitor treated pulp cells when compared to controls (FIG. 1E).

[7] = test system: mouse maxillary first molars; test: Reactionary dentine formation, non-exposed pulp injury model, micro-CT mineral content and linear measurement; assay type: in vivo; conditions: 50 nM, 4 weeks
Description: (§1) To investigate the effect of modulation of Wnt signaling on reactionary dentine formation, a reproducible tooth damage model was established. 6 weeks old, Axin2^−CreERT2; Rosa26−mTmG (fl/+) and GPR1777(Wntless)^−pCAGCreERT2 (fl/fl) mice were injected intraperitoneally with three doses of tamoxifen (2 mg per 30 g mouse, SIGMA), one dose a day. 5 days after the last tamoxifen injection, the height of the middle cusp of mouse maxillary first molars were reduced without exposing the dental pulp, leaving a band of dentine to protect the inner pulp tissue (FIG. 5).
The exposed dentine was capped either with calcium hydroxide (Dycal; Dentsply) or mineral trioxide aggregate (MTA) (ProRoot MTA; Dentsply), or dry collagen sponge (Kolspon-Fish Collage Type 1; Eucare Ltd), or collagen sponge soaked in dimethyl sulfoxide (DMSO; SIGMA), or 50 nM Tideglusib, or 1 μM LY2157299, or 1 μM Dorsomorphin. All drugs were dissolved and diluted in DMSO. […]
Mice upper molars were dissected, fixed in 4% paraformaldehyde (PFA) for 24-hours at 4° C. and scanned using a Bruker Skyscan1272 micro-CT (pCT) scanner. […] The dentine thickness was measured using the “Line” function of the software. For the dentine thickness-analysis the distance between the center of the roof of the middle pulp horn and the floor of the injured dentine margin was measured. […] The region measured comprised only the site of injury. […]

[8] = test system: TCF/Lef:H2B-GFP and Axin2-CreERT2 Wnt responsive cells; test: GFP immunohistochemistry of Wnt responsive cells in reporter mice 1 day after injury; assay type: in vivo, mouse
Source text: (§2) Since Wnt/β-catenin signaling is required for reparative dentine formation we investigated if this pathway plays a role in reactionary dentine formation. The small molecule GSK3 antagonist Tideglusib was delivered on collagen sponges at the site of damage and sealed with glass ionomer. Sponge alone and MTA sealed with glass ionomer were used as controls. To identify whether cells responded to the drug, TCF/Lef:H2B-GFP, Axin2^−CreERT2; Rosa26−mTmG flox/+ and CD1 wild type mice were used. TCF/Lef:H2B-GFP reporter mice allowed the visualisation of Wnt active cells (ie. Cells receiving a Wnt signal), Axin2^−CreERT2; Rosa26−mTmG flox/+ mice were used to lineage trace Axin2-expressing cells and gene expression analysis via qPCR (as described in Example 1) was performed on pulp cells from CD1 mouse molars. The first molars of genetically modified mice were collected 1 day after the injury and immunohistochemistry was performed. Deparaffinised sections were retrieved with sodium citrate (pH 6) and incubated with chicken polyclonal anti-GFP antibody (1:500; Abcam, Cambridge, Mass., USA; ab13970) overnight at 4° C. Sections were washed and exposed to appropriate biotinylated secondary antibody, then horseradish peroxidase (HRP)-conjugated streptavidin-biotin antibody and washed with PBST. Immunoreactivity was visualized with MenaPath green chromogen kit (Bio SB). […]

[9] = test system: Axin2 (Wnt activity) in dental pulp; test: Axin2 qPCR of dental pulp one day after dentine injury without pulp exposure; assay type: in vivo, mouse
Description: All drugs were dissolved and diluted in DMSO.
as §2, with “PBST.” for “PBST. Immunoreactivity was visualized with MenaPath green chromogen kit (Bio SB).”

[10] = test system: mouse maxillary first molars; test: Reactionary dentine formation, non-exposed pulp injury model, Masson's Trichrome histology; conditions: for Structure of reactionary dentine (histology): 4 weeks after injury without pulp exposure
Description: as §1
The exposed dentine was capped either with calcium hydroxide (Dycal; Dentsply) or mineral trioxide aggregate (MTA) (ProRoot MTA; Dentsply), or dry collagen sponge (Kolspon-Fish Collage Type 1; Eucare Ltd), or collagen sponge soaked in dimethyl sulfoxide (DMSO; SIGMA), or 50 nM Tideglusib, or 1 μM LY2157299, or 1 μM Dorsomorphin. All drugs were dissolved and diluted in DMSO. A layer of glass ionomer cement (Ketac-Cem Radiopaque; 3M ESPE) was used as a sealing material. Vetergesic (Buprenorphine—Ceva) was injected to all mice post-operative at the rate of 0.3 mg/kg by intraperitoneal injection as analgesic. The animals were sacrificed after 1 day and 4 weeks. A total of 14 genetically-modified mice (28 damaged molars) and 26 CD1 mice (52 molars) were used.
After 4 weeks decalcification in 19% EDTA pH 6, the teeth were embedded in wax blocks and sectioned at 8 μm thickness. Sections were histologically stained using Masson's Trichrome.
Sequestered latent BMP and TGF-β proteins present in the dentine matrix have been implicated in tertiary dentine formation following damage, mainly based on results obtained from in vitro experiments. The effect of inhibition of these signalling pathways in was investigated in the in vivo model of reactionary dentine formation described in Example 5 by utilising small molecules to inhibit these signalling pathways. The small molecule LY2157299 is a TGF-β type I receptor kinase inhibitor and the small molecule Dorsomorphin is an inhibitor of BMP type I receptors ALK2, ALK3 and ALK6 (Bhola et al. 2013, Yu et al. 2008). Both compounds were first tested for cytotoxicity and effectiveness of signalling pathway blocking in vitro using 17IA4 cells. The first upper molars of CD1 mice were damaged to stimulate reactionary dentine formation and a collagen sponge was soaked in either 1 μM LY2157299 or 1 μM Dorsomorphin was used as a delivery vehicle. The sponges were placed on the exposed dentine and sealed with a layer of glass ionomer.

O=C1Nc2cc(Br)ccc2/C1=C1/Nc2ccccc2/C1=N\O [BIO, 6-bromoindirubin-3′-oxime]
BIO induction of Axin2 expression relative to CHIR99021 and Tideglusib ([1]; FIG. 1D): 4 ×
Wnt activity (Axin2 qPCR) [1]: Wnt activity increases after 30 minutes of incubation and remains elevated
Histology of reparative dentine formation ([2]; 4 weeks): dense dentine formation at the injury site with vital pulp
Histology of reparative dentine formation ([2]; 6 weeks): filled the whole injury site from occlusal to pulp chamber roof; also recorded: new mature dentine formed where the sponge was placed filling the injury site
Differentiation state of dental pulp cells [3]: maintain human deciduous tooth dental pulp cells in the undifferentiated state
Proliferation of dental pulp cells [3]: reduce proliferation
Pulp vitality [4]: dental pulp remained vital
MicroCT appearance of injury site ([5]; 4 weeks): mature mineral at the injury site
MicroCT appearance of injury site ([5]; 6 weeks): injury site filled with mature dentine
Wnt activity / Axin2 expression (qPCR) in dental pulp cells [6]: significant upregulation of Wnt activity

O=c1sn(-c2cccc3ccccc23)c(=O)n1Cc1ccccc1 [Tideglusib, 4-Benzyl-2—(naphthalen-1-yl)-[1,2,4]thiadiazolidine-3,5-dione]
Mineral band thickness at the site of injury (linear measurement) vs collagen sponge alone ([7]; FIG. 9E): thicker mineral band
Mineral content under the injury site (micro-CT) ([7]; vs collagen sponge alone, FIG. 9D): high mineral content; also recorded: increase of mature mineral formation
Wnt activity (Axin2 qPCR) [1]: Wnt activity increases after 30 minutes of incubation and remains elevated
Histology of reparative dentine formation ([2]; 4 weeks): dense dentine formation at the injury site with vital pulp
Histology of reparative dentine formation ([2]; 6 weeks): filled the whole injury site from occlusal to pulp chamber roof; also recorded: complete repair with vital dental pulp
Pulp vitality [4]: dental pulp remained vital
Axin2+ (GFP-positive) cells in the dental pulp ([8]; Axin2-CreERT2, Rosa26-mTmG mice, vs collagen sponge only): increase of TCF/LEF+cells and Axin2+ cells; also recorded: more GFP-positive cells
Wnt responsive (TCF/LEF+, GFP) cells under the injury ([8]; TCF/Lef:H2B-GFP reporter mice, vs collagen sponge alone): increase of TCF/LEF+cells; also recorded: increased local response to Wnt signalling
Wnt activity / early-response Axin2 expression (qPCR) ([9]; 1 day after injury without pulp exposure): significant upregulation of Wnt activity
Axin2 expression compared to controls ([9]; 1 day after injury, FIG. 8E): 2 fold
MicroCT appearance of injury site ([5]; 4 weeks): mature mineral at the injury site
MicroCT appearance of injury site ([5]; 6 weeks): mature reparative dentine formed at the injury site almost at the same Radiopacity as the primary/secondary dentine
Amount of reactionary dentine formation (histology) compared with controls ([10]; 50 nM in collagen sponge, 4 weeks): larger reactionary dentine secretion; also recorded: enhanced reactionary dentine formation
Structure of reactionary dentine (histology) [10]: normal tubular reactionary dentine formation
Pulp / tooth vitality ([10]; mouse, in vivo): dental pulp remained vital
Wnt activity / Axin2 expression (qPCR) in dental pulp cells [6]: significant upregulation of Wnt activity

Cc1cccc(-c2nn3c(c2-c2ccnc4ccc(C(N)=O)cc24)CCC3)n1 [LY2157299]
Structure of reactionary dentine (histology) [10]: disorganised (globular) dentine; also recorded: atypical globular dentine without tubular reactionary dentine features
